{"source": "patent US20160264527A1", "about": "(priority 2011, published 2016)", "key": {"[1]": {"system": "DAGL", "assay": "Inhibition of DAGL in INS 832/13 β-cell extracts (1,2-dioleoylglycerol hydrolysis, HPLC)", "assay_type": "biochemical", "details": "compound at 10 μM; 60 min at 30° C.; 50 μM 1,2-dioleoylglycerol", "method": "(§1) Both ABHD6 and DAGL enzymes were assayed in a single incubation, with separate substrates. Cell extract, 10 μg was incubated in a final volume of 50 μl with 50 μM 1,2-dioleoylglycerol (substrate for DAGL) and 50 μM 1-palmitoylglycerol (substrate for ABHD6). […] Quantification of oleate and palm itate released gave the activities of DAGL and ABHD6, respectively. Incubations contained indicated compounds at 10 μM (or as shown) concentration. VVWL70 was used as a positive control for ABHD6 inhibition and orlistat (ORL) was used as a control for total lipase inhibition."}, "[2]": {"system": "INS832/13 cells", "assay": "Insulin secretion from INS832/13 cells, 2-h static incubations", "assay_type": "cell-based", "details": "control 1.95", "method": "Materials. Cell culture supplies were from Corning (Corning, N.Y.) and Fisherbrand (Canada). VVWL70 was dissolved in dimethylsulfoxide (DMSO) before their use in insulin secretion experiments. Palmitate sodium salt was from Nu-Check Prep (Elysian, Minn.) and bicinchoninic acid protein assay kit from Pierce (Rockford, Ill.) was used. Stock unlabelled palm itate was prepared at 4 mM in 5% defatted BSA as described elsewhere (Roduit et al. Diabetes (2004) 53 pp 1007-1019,).\nCell culture. INS832/13 cells (Hohmeir et al. Diabetes (2000) 49 pp 424-430,) were cultured at 37° C. in a humidified atmosphere containing 5% CO2 in RPMI 1640 with sodium bicarbonate, supplemented with 10% (v/v) fetal calf serum (Wisent), 10 mM HEPES, pH 7.4, 2 mM L-glutamine, 1 mM sodium pyruvate and 50 μM β-mercaptoethanol (complete RPMI). Cells were grown to 80% confluence. Media were changed to RPMI 1640 containing 3 mM glucose supplemented as the complete RPMI 24 h prior to the experiments. Insulin secretion incubations were conducted in Krebs-Ringer bicarbonate buffer containing 10 mM HEPES, pH 7.4 (KRBH).\nInsulin secretion measurement. INS832/13 cells were washed in KRBH containing 1 mM glucose and 0.5% defatted BSA (KRBH 1 G/0.5% BSA) and pre-incubated for 45 min in KRBH 1 G/0.5% BSA in presence of pharmacological agents (at indicated concentrations) or vehicle (DMSO). For examining the effect of VVWL70 (an inhibitor of ABHD6), other compounds identified in table 1, and/or orlistat (lipase inhibitor), the compounds were added first in pre-incubation media and then during incubation at 1 to 20 μM concentration (see Table-2) at 2 mM and 10 mM glucose. Insulin secretion from INS832/13 cells was measured from 2-h static incubations in KRBH containing various glucose concentrations, 0.5% defatted BSA and pharmacological agents or vehicle (DMSO), with or without 35 mM KCl or 0.3 mM palm itate, as specified (see Peyot et al., 2009—Adipose Triglyceride Lipase Is Implicated in Fuel- and Non-fuel-stimulated Insulin Secretion—J Biol Chem, 284: pp. 16848-16859). The experiments were done 3 times, with triplicates of each measurement."}, "[3]": {"target": "T1, ABHD6 (Rattus norvegicus, UniProt Q5XI64)", "T1 construct": "INS 832/13 β-cell extracts (whole cell) were prepared by sonication; endogenous in cells; host or cells: INS 832/13 β-cells, whole-cell extract", "T1 sequence (Q5XI64 1-337)": "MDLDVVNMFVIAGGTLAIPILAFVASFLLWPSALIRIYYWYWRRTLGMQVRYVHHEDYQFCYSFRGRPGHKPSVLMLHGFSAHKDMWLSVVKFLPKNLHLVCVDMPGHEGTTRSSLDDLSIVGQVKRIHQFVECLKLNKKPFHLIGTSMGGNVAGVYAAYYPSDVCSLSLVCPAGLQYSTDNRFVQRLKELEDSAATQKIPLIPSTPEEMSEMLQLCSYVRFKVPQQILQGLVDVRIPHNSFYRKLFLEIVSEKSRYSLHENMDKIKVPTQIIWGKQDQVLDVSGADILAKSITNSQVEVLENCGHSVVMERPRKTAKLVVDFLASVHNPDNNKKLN", "assay": "biochemical", "details": "read-out: ABHD6 Inhibition %", "method": "as §1"}, "[4]": {"system": "CD1 strain mice", "assay": "Oral glucose tolerance test (OGTT) in streptozotocin-induced mildly diabetic mice", "assay_type": "in vivo", "details": "5 mg/kg intraperitoneally daily for three days prior to OGTT; glucose 2 g/kg by gavage; versus vehicle; FIGS. 1 and 2", "method": "In this experiment—CD1 strain mice were injected once with streptozotocin (100 mg/kg body wt) to induce mild diabetes. After 4 weeks, the mice were fasted overnight and oral glucose tolerance test (OGTT) was done. Half the animals (5) received ABHD6 inhibitor, VVWL70 for the three days prior to OGTT, daily, intraperitoneally (at 5 mg/kg body weight) and the other half received only vehicle. For OGTT, glucose was given by gavage (2 g/kg body wt), followed by blood collection at indicated time points (on the graph) for the analysis of blood glucose (by glucometer) and plasma insulin (by ELISA)."}, "[5]": {"details": "compound at 10 μM, 60 min at 30° C., 50 μM 1-palmitoylglycerol"}}, "note": "Where a name gives a salt, the structure may show the parent alone. Read-outs that look alike come from different tables or passages of the source."}
{"smiles": "CNC(=O)c1ccc(-c2ccc(OC(=O)N(Cc3cccc(-c4ccncc4)c3)C(C)C)cc2)cc1", "note": "[Compound 6, 4′-(Methylcarbamoyl)biphenyl-4-yl N-i-propyl-N-(3-(pyridin-4-yl)benzyl)carbamate]", "values": [{"measurement": "DAGL Inhibition %", "setting": "[1]", "value": 0, "unit": "%"}, {"measurement": "Insulin secretion (% content)", "setting": "[2]; compound at 2 μM", "value": 3.10, "unit": "% content"}, {"measurement": "Insulin secretion (% content)", "setting": "[2]; compound at 5 μM", "value": 3.98, "unit": "% content"}, {"measurement": "Insulin secretion (% content)", "setting": "[2]; compound at 10 μM", "value": 5.88, "unit": "% content"}, {"measurement": "inhibition at 10 µM", "setting": "[3]; [5]", "value": 95, "unit": "%"}]}
{"smiles": "CNC(=O)c1ccc(-c2ccc(OC(=O)N(C)Cc3cccc(-c4ccncc4)c3)cc2)cc1", "note": "[Compound 2, 4′-(Methylcarbamoyl)biphenyl-4-yl N-methyl-N-(3-(pyridin-4-yl)benzyl)carbamate]", "values": [{"measurement": "DAGL Inhibition %", "setting": "[1]", "value": 0, "unit": "%"}, {"measurement": "Insulin secretion (% content)", "setting": "[2]; compound at 2 μM", "value": 2.25, "unit": "% content"}, {"measurement": "Insulin secretion (% content)", "setting": "[2]; compound at 5 μM", "value": 3.70, "unit": "% content"}, {"measurement": "Insulin secretion (% content)", "setting": "[2]; compound at 10 μM", "value": 6.08, "unit": "% content"}, {"measurement": "inhibition at 10 µM", "setting": "[3]", "value": 98, "unit": "%"}]}
{"smiles": "CN(Cc1cccc(-c2ccncc2)c1)C(=O)Oc1ccc(-c2ccc(C(=O)NC3CC3)cc2)cc1", "note": "[Compound 5, 4′-(Cyclopropylcarbamoyl)biphenyl-4-yl N-methyl-N-(3-(pyridin-4-yl)benzyl)carbamate]", "values": [{"measurement": "DAGL Inhibition %", "setting": "[1]", "value": 10, "unit": "%"}, {"measurement": "Insulin secretion (% content)", "setting": "[2]; compound at 2 μM", "value": 2.01, "unit": "% content"}, {"measurement": "Insulin secretion (% content)", "setting": "[2]; compound at 5 μM", "value": 2.05, "unit": "% content"}, {"measurement": "Insulin secretion (% content)", "setting": "[2]; compound at 10 μM", "value": 3.56, "unit": "% content"}, {"measurement": "inhibition at 10 µM", "setting": "[3]", "value": 60, "unit": "%"}]}
{"smiles": "CNC(=O)c1ccc(-c2ccc(OC(=O)N(C)Cc3cccc(-c4ccccc4)c3)cc2)cc1", "note": "[Compound 4, 4′-(Methylcarbamoyl)biphenyl-4-yl N-methyl-N-(3-phenylbenzyl)carbamate]", "values": [{"measurement": "DAGL Inhibition %", "setting": "[1]", "value": 0, "unit": "%"}, {"measurement": "Insulin secretion (% content)", "setting": "[2]; compound at 2 μM", "value": 3.05, "unit": "% content"}, {"measurement": "Insulin secretion (% content)", "setting": "[2]; compound at 5 μM", "value": 3.65, "unit": "% content"}, {"measurement": "Insulin secretion (% content)", "setting": "[2]; compound at 10 μM", "value": 3.82, "unit": "% content"}, {"measurement": "inhibition at 10 µM", "setting": "[3]", "value": 70, "unit": "%"}]}
{"smiles": "NC(=O)c1ccc(-c2ccc(OC(=O)N(Cc3cccc(-c4ccncc4)c3)c3ccccc3)cc2)cc1", "note": "[Compound 3, trifluoroacetate salt]", "values": [{"measurement": "DAGL Inhibition %", "setting": "[1]", "value": 0, "unit": "%"}, {"measurement": "Insulin secretion (% content)", "setting": "[2]; compound at 2 μM", "value": 2.00, "unit": "% content"}, {"measurement": "Insulin secretion (% content)", "setting": "[2]; compound at 5 μM", "value": 2.10, "unit": "% content"}, {"measurement": "Insulin secretion (% content)", "setting": "[2]; compound at 10 μM", "value": 3.05, "unit": "% content"}, {"measurement": "inhibition at 10 µM", "setting": "[3]; [5]", "value": 90, "unit": "%"}]}
{"smiles": "CN(Cc1cccc(-c2ccncc2)c1)C(=O)Oc1ccc(-c2ccc(C(N)=O)cc2)cc1", "note": "[Compound 1, reference compound]", "values": [{"measurement": "blood glucose control in OGTT", "setting": "[4]", "value": "able to control their blood glucose levels better than the mice which were given vehicle"}, {"measurement": "plasma insulin levels in OGTT", "setting": "[4]", "value": "increase in plasma insulin levels"}, {"measurement": "Insulin secretion (% content)", "setting": "[2]; compound at 2 μM", "value": 3.22, "unit": "% content"}, {"measurement": "Insulin secretion (% content)", "setting": "[2]; compound at 5 μM", "value": 3.97, "unit": "% content"}, {"measurement": "Insulin secretion (% content)", "setting": "[2]; compound at 10 μM", "value": 6.03, "unit": "% content"}]}
